Laboratory results from ChEMBL document CHEMBL4196029, “New MD2 inhibitors derived from curcumin with improved anti-inflammatory activity” (Eur J Med Chem, 2018).
Activity calls are given as the source filed them. No cut-off for these calls is given here.

What was measured:
Peritoneal macrophage [1] = assay: Anti-inflammatory activity in C57BL/6 mouse primary peritoneal macrophages assessed as inhibition of LPS-induced IL-6 secretion at 2.5 uM preincubated for 30 mins followed by LPS addition measured after 24 hrs by ELISA relative to control; assay type: functional; settings: C57BL/6, Peritoneal macrophage
Peritoneal macrophage [2] = assay: Anti-inflammatory activity in C57BL/6 mouse primary peritoneal macrophages assessed as inhibition of LPS-induced TNFalpha secretion at 5 uM preincubated for 30 mins followed by LPS addition measured after 24 hrs by ELISA relative to control; assay type: functional; settings: C57BL/6, Peritoneal macrophage
Peritoneal macrophage [3] = assay: Anti-inflammatory activity in C57BL/6 mouse primary peritoneal macrophages assessed as inhibition of LPS-induced IL-6 secretion at 1 to 10 uM preincubated for 30 mins followed by LPS addition measured after 24 hrs by ELISA; assay type: functional, cell-based
Peritoneal macrophage [4] = assay: Anti-inflammatory activity in C57BL/6 mouse primary peritoneal macrophages assessed as inhibition of LPS-induced TNFalpha secretion at 1 to 10 uM preincubated for 30 mins followed by LPS addition measured after 24 hrs by ELISA; assay type: functional, cell-based
Peritoneal macrophage [5] = assay: Anti-inflammatory activity in C57BL/6 mouse primary peritoneal macrophages assessed as inhibition of LPS-induced TNFalpha secretion at 10 uM preincubated for 30 mins followed by LPS addition measured after 24 hrs by ELISA relative to control; assay type: functional; settings: for inhibition at 10 µM: C57BL/6, Peritoneal macrophage
Peritoneal macrophage [6] = assay: Anti-inflammatory activity in C57BL/6 mouse primary peritoneal macrophages assessed as inhibition of LPS-induced IL-6 secretion at 10 uM preincubated for 30 mins followed by LPS addition measured after 24 hrs by ELISA relative to control; assay type: functional; settings: for inhibition at 10 µM: C57BL/6, Peritoneal macrophage
[7] = Chemical stability in pH 7.4 phosphate buffer at 20 uM measured at 5 mins time intervals for 25 mins by UV absorbance spectroscopic method; assay type: physicochemical; settings: pH 7.4, 25 min

Row | SMILES | inhibition at 2.5 µM (Peritoneal macrophage [1]) | inhibition at 5 µM (Peritoneal macrophage [2]) | inhibition (Peritoneal macrophage [3]) | inhibition (Peritoneal macrophage [4]) | inhibition at 10 µM (Peritoneal macrophage [5]) | inhibition at 10 µM (Peritoneal macrophage [6]) | Stability [7] | inhibition (Peritoneal macrophage [5]) | inhibition (Peritoneal macrophage [6])
1 | CCN1C/C(=C\c2ccc(F)cc2)C(=O)/C(=C/c2ccc(F)cc2)C1 | > 50% | > 50% | Active | Active | > 80% | > 80% | – | – | –
2 | O=C1/C(=C/c2cccc(O)c2)COC/C1=C\c1cccc(O)c1 | > 50% | > 50% | Active | Active | > 80% | > 80% | Stable | – | –
3 | COc1ccccc1/C=C1\COC/C(=C\c2ccccc2OC)C1=O | – | – | – | – | – | – | – | Active | Active
4 | COc1ccc(/C=C2\COC/C(=C\c3ccc(OC)c(OC)c3)C2=O)cc1OC | – | – | – | – | – | – | – | inactive | inactive
5 | O=C1/C(=C/c2ccccc2Br)COC/C1=C\c1ccccc1Br | – | – | – | – | – | – | – | inactive | inactive
6 | CN1C/C(=C\c2ccccc2Br)C(=O)/C(=C/c2ccccc2Br)C1 | > 50% | > 50% | Active | Active | > 80% | > 80% | Unstable | – | –
7 | COc1cc(/C=C2\CSC/C(=C\c3cc(OC)c(OC)c(OC)c3)C2=O)cc(OC)c1OC | – | – | – | – | 25% | 60% | – | – | –
8 | COc1cc(/C=C/C(=O)CC(=O)/C=C/c2ccc(O)c(OC)c2)ccc1O [CURCUMIN] | – | – | – | – | – | – | Unstable | Active | Active
9 | COc1cccc(/C=C2\COC/C(=C\c3cccc(OC)c3OC)C2=O)c1OC | – | – | – | – | – | – | – | Active | Active
10 | COc1ccc(/C=C2\COC/C(=C\c3ccc(OC)cc3)C2=O)cc1 | – | – | – | – | – | – | – | inactive | inactive
11 | CCN1C/C(=C\c2cccc(OC)c2OC)C(=O)/C(=C/c2cccc(OC)c2OC)C1 | > 50% | > 50% | Active | Active | > 80% | > 80% | Stable | – | –
